# Measured values: patent US7365099B2, “Animal body fat control” (Wisconsin Alumni Research Foundation, priority 2001, dated 2008)
# Key:
# [1] = tested on: lipoprotein lipase associated with 3T3-L1 adipocytes; test: Heparin-releasable lipoprotein lipase (LPL) activity in 3T3-L1 adipocyte cultures; format: cell-based; settings: for potency in reducing LPL (rank order, in words): FIG. 5B, 20–24 hours, all test compounds at 100 μM; for LPL activity (in words): CLA 100 μM, aspirin 100 μM
# Procedure: Using the same model, the effects on LPL of aspirin and NDGA, as compared to CLA, were tested. 3T3-L1 preadipocytes were cultured as described. […] Briefly, 3T3-L1 preadipocytes were grown to confluence at 37° C. in Dulbecco's Modified Eagle's Medium (DMEM) with 10% fetal bovine serum (FBS). At two days post-confluence (designated “day 0”) cell differentiation was induced with a mixture of methylisobutylxanthine (0.5 mM), dexamethasone (0.25 μM), and insulin (1 μg/ml) in DMEM containing 10% FBS. On “day 2” this medium was replaced with DMEM medium containing 10% FBS and insulin only. On “day 4” and thereafter the medium was DMEM plus 10% FBS only; this medium was subsequently replaced with fresh medium at 2 day intervals.
# First, aspirin was tested along with PGE2, which is the final product of cyclooxygenase. Cells were treated with testing compounds for 4 hours before harvesting at day 6 or 7 post differentiation. The concentration of CLA, aspirin, and PGE2 were 1×10^−4 M, 1×10^−4 M, and 1×10^−6 M respectively. […] All dishes (including control) contained the same concentration of albumin (1×10^−4 M) and ethanol (final concentration of 0.1%).
# Heparin-releasable lipoprotein lipase (LPL) activity (EC 3.1.1.34, 10 U heparin/ml media for 1 hr at 37° C.) was measured as described. Nilsson-Ehle, P. and M. C. […] Protein was determined using Bio-Rad DC Protein assay kit.
# In a next set of cell culture experiments, shown in FIG. 4, cells were treated with testing compounds for 20–24 hours at day 7 post differentiation. […] CLA was complexed with albumin, and aspirin and NDGA were dissolved in ethanol. All dishes including control contained the same concentration of albumin (1×10^−4 M) and ethanol (final concentration of 0.05%). Numbers are mean±S.E. (n=7–8, collected from 2 independent experiments).
# (§1) Cells were treated with other known lipoxygenase inhibitors. Cells were treated with testing compounds for 20–24 hours at day 6 or 7 post differentiation. Based on the ED50 of these inhibitors, various doses were first tested. In FIG. 5A, the concentration of SHA, CLA, ETYA, indomethacin, NDGA and AA861 were 1×10^−3 M, 1×10^−4 M, 1×10^−4 M, 1×10^−4 M, 1×10^−5 M and 1×10^−6 M, respectively. In FIG. 5B, the cells were treated with the test compounds at 1×10^−4 M. CLA was complexed with albumin and others were dissolved in ethanol. All dishes including control contained the same concentration of albumin (1×10^−4 M) and ethanol (final concentration of 0.1%). Numbers are mean±S.E. (in FIG. 5A, n=7–8, collected from 2 independent experiments, in FIG. 5B, n=11–12, collected from 3 independent experiments). […] Indomethacin blocks both cyclooxygenase and lipoxygenase, the two primary enzymes in the arachidonic acid metabolic cascade.
# [2] = tested on: 3T3-L1 adipocytes; test: Glycerol released from 3T3-L1 adipocytes; format: cell-based; settings: treated 20–24 hours
# Procedure: (§2) Fat reduction by CLA is partly due to inhibition of lipoprotein lipase (LPL) in adipocytes, as has been previously shown using a 3T3-L1 adipocyte cell culture model. Using the same model, the effects on LPL of aspirin and NDGA, as compared to CLA, were tested. 3T3-L1 preadipocytes were cultured as described. Frost, S. C. and M. D. Lane, J. Biol. Chem. 260: 2646–2652(1985). Briefly, 3T3-L1 preadipocytes were grown to confluence at 37° C. in Dulbecco's Modified Eagle's Medium (DMEM) with 10% fetal bovine serum (FBS). At two days post-confluence (designated “day 0”) cell differentiation was induced with a mixture of methylisobutylxanthine (0.5 mM), dexamethasone (0.25 μM), and insulin (1 μg/ml) in DMEM containing 10% FBS. On “day 2” this medium was replaced with DMEM medium containing 10% FBS and insulin only. On “day 4” and thereafter the medium was DMEM plus 10% FBS only; this medium was subsequently replaced with fresh medium at 2 day intervals.
# as §1, with “cascade. […] When 100 μM of these were tested, the potency was AA861>NDGA>ETYA>Indomethacin>CLA. […]” for “cascade.”
# [3] = tested on: 3T3-L1 adipocytes; test: Cellular triacylglyceride (TG) in 3T3-L1 adipocytes; format: cell-based; settings: treated 20–24 hours
# Procedure: as §2
# Cells were treated with other known lipoxygenase inhibitors. Cells were treated with testing compounds for 20–24 hours at day 6 or 7 post differentiation. Based on the ED50 of these inhibitors, various doses were first tested. In FIG. 5A, the concentration of SHA, CLA, ETYA, indomethacin, NDGA and AA861 were 1×10^−3 M, 1×10^−4 M, 1×10^−4 M, 1×10^−4 M, 1×10^−5 M and 1×10^−6 M, respectively. […]
# [4] = Body weights of mice on NDGA/CLA diets (Experiment 2, FIG. 2); format: in vivo; settings: male ICR mice
# Procedure: (§3) After a 5 day adaptation period, four-week-old weanling male ICR mice (Harlan Sprague-Dawley) were randomly separated into groups that were fed one of the treatment diets for 4 weeks. Mice were fed either a control diet (as in Experiment 1), or a diet supplemented with CLA (0.1%), NDGA (0.1% or 0.005%), or CLA (0.1%) with NDGA (0.1% or 0.005%). The lower level of NDGA was chosen based on the level used as an antioxidant in the food industry. Supplemental NDGA was added to diets at the expense of sugar. Diet was stored at −20° C. until use. Mice were housed individually in a windowless room with a 12-h light-dark cycle in strict accordance to guidelines established by the Research Animal Resources Center of University of Wisconsin-Madison. Diet and water, available ad libitum, were freshly provided three times per week.
# [5] = tested on: ICR mice; test: Body composition analysis of mice on NDGA/CLA diets (Experiment 2); format: in vivo; settings: male ICR mice; for % Ash / ECW (empty carcass weight): mean±S.E., N=5–6; for body composition versus control (in words): 4 weeks
# Procedure: For body composition analyses, animals were sacrificed, gut contents were removed (to obtain empty carcass weight, “ECW”), and the carcasses frozen at −20° C. Frozen carcasses were chopped, and freeze dried to determine water content. Each dried carcass was ground to give a homogeneous sample before further analysis. Total nitrogen was analyzed by the Kjeldahl method. Helrich, K., Official Methods of Analysis, 15th ed.: 935–937(1990). Carcass fat content was measured by extraction with diethyl ether overnight using a Soxhlet apparatus. Total ash content was determined by incineration (500–600° C., overnight).
# as §3
# [6] = Body weights of mice on aspirin/CLA diets (Experiment 1, FIG. 1); format: in vivo; settings: female ICR mice, 0.5% CLA and/or 0.03% aspirin
# Excerpt: After a 5 day adaptation period, four-week-old weanling female ICR mice (Harlan Sprague-Dawley) were randomly separated into groups that were fed one of the treatment diets for 4 weeks. Mice were fed either a control diet, or a diet supplemented with aspirin alone (0.03%), 0.5% CLA alone, or CLA with additional aspirin (0.006% [“Asp1”] or 0.03% [“Asp2”]). The control diet was semi-purified TD94060 diet, 99% basal mix from Harlan Teklad, Madison, Wis. that contained (ingredient, g/kg): sucrose, 476; casein, “vitamin-free” test, 210; corn starch, 150; DL-methionine, 3; corn oil 55; cellulose, 50; mineral mix, AIN-76, 35; vitamin mix, AIV-76A, 10; calcium carbonate, 4; choline bitartrate, 2; and ethoxyquin, 0.1. The aspirin doses reflect an average human dose (0.03%) or a recommended dose for preventing cardiovascular disease (0.006%). Supplemental CLA was added to diets at the expense of corn oil. Diet was stored at −20° C. until use. Mice were housed individually in a windowless room with a 12-h light-dark cycle in strict accordance to guidelines established by the Research Animal Resources Center of University of Wisconsin-Madison. Diet and water, available ad libitum, were freshly provided three times per week.
# [7] = Food intake of mice on NDGA/CLA diets (Experiment 2); format: in vivo; settings: male ICR mice; for food intake, Total / food intake, Week 1 / food intake, Week 4: mean±S.E., N=5–6
# Procedure: as §3
# [8] = tested on: ICR mice; test: Body composition analysis of mice on aspirin/CLA diets (Experiment 1); format: in vivo; settings: female ICR mice, 4 weeks
# Excerpt: After a 5 day adaptation period, four-week-old weanling female ICR mice (Harlan Sprague-Dawley) were randomly separated into groups that were fed one of the treatment diets for 4 weeks. Mice were fed either a control diet, or a diet supplemented with aspirin alone (0.03%), 0.5% CLA alone, or CLA with additional aspirin (0.006% [“Asp1”] or 0.03% [“Asp2”]). The control diet was semi-purified TD94060 diet, 99% basal mix from Harlan Teklad, Madison, Wis. that contained (ingredient, g/kg): sucrose, 476; casein, “vitamin-free” test, 210; corn starch, 150; DL-methionine, 3; corn oil 55; cellulose, 50; mineral mix, AIN-76, 35; vitamin mix, AIV-76A, 10; calcium carbonate, 4; choline bitartrate, 2; and ethoxyquin, 0.1. The aspirin doses reflect an average human dose (0.03%) or a recommended dose for preventing cardiovascular disease (0.006%). Supplemental CLA was added to diets at the expense of corn oil. Diet was stored at −20° C. until use. […]
# For body composition analyses, animals were sacrificed, gut contents were removed (to obtain empty carcass weight, “ECW”), and the carcasses frozen at −20° C. […] Total nitrogen was analyzed by the Kjeldahl method. […] Carcass fat content was measured by extraction with diethyl ether overnight using a Soxhlet apparatus. Total ash content was determined by incineration (500–600° C., overnight).
# [9] = tested on: fat tissue; settings: reported by Gowri et al. 2000; cited from earlier work
# [10] = 4 weeks diet with 0.1% CLA and/or 0.1% NDGA
# [11] = FIG. 3, treated 4 hours, day 6 or 7 post differentiation, PGE2 1 μM
# [12] = FIG. 4, treated 20–24 hours at day 7 post differentiation, NDGA 50 μM
# [13] = diet with 0.1% CLA and/or 0.1% NDGA
# [14] = 0.005% NDGA, with or without 0.1% CLA
# [15] = 4 weeks diet with 0.005% NDGA, with or without 0.1% CLA
# [16] = diet with 0.005% NDGA, with or without 0.1% CLA
compound,measurement,setting,value
"CCCCCC#CCC#CCC#CCC#CCCCC(=O)O [ETYA, 5,8,11,14-eicosatetraynoic acid]","potency in reducing LPL (rank order, in words)",[1],AA861>NDGA>ETYA>Indomethacin>CLA
"CC1=C(C)C(=O)C(CCCCC#CCCCC#CCO)=C(C)C1=O [AA861, 2-[12-hydroxydodeca-5,10-diynyl]-3,5,6-trimethyl-p-benzoquinone]","potency in reducing LPL (rank order, in words)",[1],AA861>NDGA>ETYA>Indomethacin>CLA
same,glycerol released from the cell (in words),[2],reduced the glycerol release
Conjugated linoleic acid [CLA],amount of cellular triacylglyceride (TG) (in words),[3],reduced
same,body weights (in words),[4]; 0.1% CLA and/or 0.1% NDGA,no difference in body weights
same,% Ash,[5]; [10],3.49 ± 0.07%
same,ECW (empty carcass weight),[5]; [10],32.0 ± 0.9 g
same,body composition versus control (in words),[5]; 0.1% CLA and/or 0.1% NDGA,reduced fat (p<0.197) and increased water and protein
same,LPL activity (in words),[1]; [11],significantly decreased LPL activity
same,LPL activity (in words),[1]; [12],significantly reduced LPL activity
same,"potency in reducing LPL (rank order, in words)",[1],AA861>NDGA>ETYA>Indomethacin>CLA
same,"body weights, weeks 0 through 3 (in words)",[6],no difference in body weights
same,glycerol released from the cell (in words),[2],increased the glycerol released
same,food intake compared to control (in words),"[7]; 0.1% CLA, with or without 0.1% NDGA",reduced food intake only at week 3
same,"food intake, Total",[7]; [10],136.6 ± 1.2 g/mouse
same,"food intake, Week 1",[7]; [13],34.5 ± 0.3 g/mouse
same,"food intake, Week 4",[7]; [13],32.4 ± 0.7 g/mouse
"CCCCC[C@H](O)/C=C/[C@H]1[C@H](O)CC(=O)[C@@H]1C/C=C\CCCC(=O)O [PGE2, Prostaglandin E2]",LPL activity (in words),[1]; [11],no effect on LPL
"COc1ccc2c(c1)c(CC(=O)O)c(C)n2C(=O)c1ccc(Cl)cc1 [Indomethacin, indomethacin]","potency in reducing LPL (rank order, in words)",[1],AA861>NDGA>ETYA>Indomethacin>CLA
"CC(=O)Oc1ccccc1C(=O)O [aspirin, Acetylsalicylic acid]",LPL activity (in words),[1]; [11],no effect on LPL
same,LPL activity (in words),[1]; [12],no effect
same,effect of added aspirin on CLA's effects on body composition (in words),[8]; 0.006% or 0.03% aspirin with 0.5% CLA,did not change any of CLA's effects
same,body composition versus control (in words),"[8]; 0.5% CLA with or without aspirin, aspirin alone 0.03%",no effect on body composition
same,"body weights, weeks 0 through 3 (in words)",[6],no difference in body weights
"CC(Cc1ccc(O)c(O)c1)C(C)Cc1ccc(O)c(O)c1 (stereo not drawn) [NDGA, nordihydroguaiaretic acid]",body weights (in words),[4]; [14],no difference in body weights
same,body weights (in words),[4]; 0.1% CLA and/or 0.1% NDGA,no difference in body weights
same,% Ash,[5]; [15],3.29 ± 0.12%
same,ECW (empty carcass weight),[5]; [15],32.2 ± 0.6 g
same,% Ash,[5]; [10],3.43 ± 0.09%
same,ECW (empty carcass weight),[5]; [10],31.9 ± 1.3 g
same,body composition versus control (in words),[5]; [14],no effect on body composition
same,body composition versus control (in words),[5]; 0.1% CLA and/or 0.1% NDGA,reduced fat (p<0.209) and increased water and protein
same,LPL activity (in words),[1]; [12],significantly reduced LPL activity
same,"potency in reducing LPL (rank order, in words)",[1],AA861>NDGA>ETYA>Indomethacin>CLA
same,glycerol released from the cell (in words),[2],reduced the glycerol release
same,"food intake, Total",[7]; [15],136.3 ± 1.3 g/mouse
same,"food intake, Total",[7]; [10],137.9 ± 1.9 g/mouse
same,"food intake, Week 1",[7]; [16],33.8 ± 0.6 g/mouse
same,"food intake, Week 4",[7]; [16],34.0 ± 0.4 g/mouse
same,"food intake, Week 1",[7]; [13],35.2 ± 0.7 g/mouse
same,"food intake, Week 4",[7]; [13],33.8 ± 1.0 g/mouse
same,lipolysis in fat tissue (in words),[9],reduce lipolysis
